Structures can show the parent of a compound that is named as a salt.
Assays:
[1] = Antihypertensive activity, spontaneous hypertensive rat, indirect tail cuff method; assay type: in vivo; conditions: three days, measured on third day
Protocol: The spiro[benzofuran-2(3H),1'-cycloheptane]s of formula I of the present invention are useful as antihypertensive agents due to their ability to depress blood pressure in mammals. Antihypertensive activity is measured in the spontaneous hypertensive rat by the indirect tail cuff method described in "Methods in Pharmacology", A. Schwartz, Ed., Vol. I, Appleton-Century Crofts, New York, N. Y., 1971, p. 135. In this procedure a group of five animals are treated orally for three days with the test compound in relation to a control group of the same number. The drop in blood pressure is measured on the third day following administration. The antihypertensive activities of some of the compounds, expressed as a decrease in mean arterial blood pressure (in mm Hg), are given in Table I.

[2] = Anticonvulsant activity, supramaximal electroshock assay (SES); assay type: in vivo, mice; conditions: Mus musculus, ip
Protocol: Compounds I of the present invention are useful as anticonvulsant agents. […] Groups of male mice (18-30 grams) are used. Drugs are prepared using distilled water and if insoluble, a surfactant is added. Control animals receive vehicle. Drugs are routinely administered intraperitoneally. The dosage volume is 10 ml/kg.
The animal's eyes are placed across the output terminals of an A.C. shocker that delivers 206 volts rms for 300 milliseconds. Electrode paste coats the animal's eyes at the point of contact with the terminals.
Protection is expressed as normalized percent inhibition relative to vehicle control. [formula]
A time response is carried out using 6 animals per group. Animals are tested at 30, 60 and 120 minutes postdrug. Additional time periods are tested if indicated by previous tests.
When the peak activity time has been determined, a dose response is initiated, using 10 animals per group at that time period. The ED50 and 95% confidence interval are calculated by computerized probit analysis.

[3] = Analgesic activity, 2-phenyl-1,4-benzoquinone-induced writhing test; assay type: in vivo, mice
Description: Compounds I of the present invention are useful as analgesic agents due to their ability to alleviate pain in mammals. […] Exptl. Biol. Med., 95, 729 (1957)].

[4] = Inhibition of tetrabenazine-induced ptosis (antidepressant activity); assay type: in vivo, mice; conditions: Mus musculus, ip, 0.5 h; i.p.; tetrabenazine 40 mg/kg i.p. 30 minutes after
Protocol: Compounds I of the present invention are useful as antidepressant agents due to their ability to prevent tetrabenazine induced ptosis in mice. The method used is as follows.
Male mice weighing 20 to 30 grams are used in test groups of five subjects. All compounds are dissolved, or suspended with one drop of a non-ionic surfactant in distilled water and administered in volumes of 10 ml/kg of body weight. Tetrabenazine (TBZ) solution is made from methanesulfonate salt and the concentration is adjusted to enable the administration of 40 mg/kg of base by intraperitoneal injection (i.p.).
If the test compound is administered intraperitoneally, TBZ is injected 30 minutes after administration. If the test compound is administered orally (p.o.), TBZ is injected 60 minutes after the administration. A control group received solvent and TBZ by the same route and at the same intervals as the drug groups.
Thirty and sixty minutes after TBZ injection the subjects are placed in individual plastic containers (10/1/2"×8"×6") and one minute after transfer they are scored for ptosis on the followig scale: eyes closed=4, eyes 3/4 closed=3, eyes 1/2 closed=2, eyes 1/4 closed=1, and eyes open=0. The total score for each group of five will therefore be from 0 to 20 and these scores are used as indications of drug activity.
The vehicle-control group score is used as a determinate of the validity of each test. […]

CN(C)CCC=C1c2ccccc2OC12CCCCCC2
Blood Pressure Drop ([1]; 50 mg/kg p.o.): 32 mm Hg

CN(C)CCCC1c2ccccc2OC12CCCCCC2 (stereo not shown) [3-(3-Dimethylaminopropyl)-spiro[benzofuran-2(3H),1'-cycloheptane]hydrochloride]
ED50 [2]: 30.6 mg/kg

CN(C)CCCC1c2cc(Cl)ccc2OC12CCCCCC2.Cl (stereo not shown) [5-Chloro-3-(3-dimethylaminopropyl)-spiro[benzofuran-2(3H),1'-cycloheptane] hydrochloride]
% Inhibition at 20 mg/kg, s.c. [3]: 40%

CN(C)CCO/N=C1/c2ccccc2OC12CCCCCC2 [(Z)-O-Dimethylaminoethyl-spiro[benzofuran-2(3H),1'-cycloheptan]-3-one oxime maleate]
ED50 [2]: 30.2 mg/kg
ED50 [4]: 72.5 mg/kg

CC(C)NCC(O)CO/N=C1/c2ccccc2OC12CCCCCC2 (stereo not shown) [(Z)-O-[3-[(1-Methylethyl)amino]-2-hydroxypropyl]spiro[benzofuran-2(3H),1'-cycloheptan]-3-one oxime maleate]
% Inhibition at 20 mg/kg, s.c. [3]: 40%

CNC1=Nc2ccc(Cl)cc2C(c2ccccc2)=[N+]([O-])C1 [Chlordiazepoxide, reference compound]
ED50 [2]: 8 mg/kg

CN(CCCC1c2ccccc2OC12CCCCCC2)CCc1ccccc1.O=C(O)/C=C/C(=O)O (stereo not shown) [N-Methyl-N-(2-phenylethyl)-spiro[benzofuran-2(3H),1'-cycloheptane]-3-propanamine fumarate]
Blood Pressure Drop ([1]; 50 mg/kg p.o.): 76 mm Hg

CN(CCCC1c2ccccc2OC12CCCCCC2)Cc1ccccc1 (stereo not shown) [N-Methyl-N-[3-[spiro[benzofuran-2(3H),1'-cyclohept-3-yl]]propyl]benzenemethanamine maleate]
% Inhibition at 20 mg/kg, s.c. [3]: 54%

CN(CCCC(c1ccc(F)cc1)c1ccc(F)cc1)CCCC1c2ccccc2OC12CCCCCC2 (stereo not shown) [N-[4-[Bis(4-fluorophenyl)]-butyl]-N-methyl-spiro[benzofuran-2(3H),1'-cycloheptane]-3-propanamine fumarate]
Blood Pressure Drop ([1]; 30 mg/kg p.o.): 61 mm Hg
% Inhibition at 20 mg/kg, s.c. [3]: 70%

CCC(=O)O[C@](Cc1ccccc1)(c1ccccc1)[C@H](C)CN(C)C [Propoxyphene, reference compound]
ED50 ([3]; Mus musculus, sc): 3.9 mg/kg

C[C@](N)(Cc1ccc(O)c(O)c1)C(=O)O [alpha-Methyldopa, reference compound]
Blood Pressure Drop ([1]; 50 mg/kg p.o.): 40 mm Hg
